Laboratory results reported in patent publication US20230374015A1, “INHIBITORS OF FIBROBLAST GROWTH FACTOR RECEPTOR KINASES” (Kinnate Biopharma Inc., priority 2020, published 2023).

These compounds were tested against FGFR2 (Homo sapiens, UniProt P21802) (assay: FGFR2 Kinase Protocol - Condition 2 (Reaction Biology HotSpot radiometric kinase assay, no preincubation)). Conditions: poly[Glu:Tyr] (4:1) 0.2 mg/ml, ATP 100 microM, 2 hr room temperature.
Format: biochemical
Protocol: Example 2: FGFR2 Kinase Protocol—Condition 2
The Reaction Biology HotSpot assay platform (http://www.reactionbiology.com) was used to measure kinase/inhibitor interactions as described previously (Anastassiadis et al., 2011). In brief, for each reaction, kinase and substrate were mixed in a buffer containing 20 mM HEPES (pH 7.5), 10 mM MgCl2, 1 mM EGTA, 0.02% Brij35, 0.02 mg/mL BSA, 0.1 mM Na3VO4, 2 mM DTT, and 1% DMSO. All compounds were in powder form and freshly solubilized in DMSO for assays. Compounds were then added to each reaction mixture via acoustic dispense using an ECHO 550 nanoliter dispenser. For Human FGFR2 wildtype testing, a peptide substrate, poly[Glu:Tyr] (4:1) was used to promote the reaction at a concentration of 0.2 mg/ml. For Human FGFR2 (V564F) testing, a peptide substrate, poly[Glu:Tyr] (4:1) was used to promote the reaction at a concentration of 0.2 mg/ml. ATP concentration for all assays was maintained at 100 micromolar. Compounds were tested in 10-dose IC50 mode with a 3-fold serial dilution. Compounds were added to plates and ATP was added directly to the wells. ATP (Sigma-Aldrich, St. Louis, MO 63178) and [g33P] ATP (specific activity 10 microCi/microliter) purchased at PerkinElmer (Boston, MA, 02118 Cat #BLU 003H250UC) were added at a final total concentration of 100 microM to each well with no preincubation. Reactions were carried out at room temperature for 2 hr and spotted onto P81 ion exchange cellulose chromatography paper (Reaction Biology). Filter paper was washed in 0.75% phosphoric acid to remove unincorporated ATP. The percent remaining kinase activity relative to a vehicle-containing (DMSO) kinase reaction was calculated for each kinase/inhibitor pair. IC50 values were calculated using Dotmatics Knowledge Solutions Studies curve fitting (Dotmatics, Bishops Stortford, UK, CM23).

FGFR2, sequence (P21802 22-821): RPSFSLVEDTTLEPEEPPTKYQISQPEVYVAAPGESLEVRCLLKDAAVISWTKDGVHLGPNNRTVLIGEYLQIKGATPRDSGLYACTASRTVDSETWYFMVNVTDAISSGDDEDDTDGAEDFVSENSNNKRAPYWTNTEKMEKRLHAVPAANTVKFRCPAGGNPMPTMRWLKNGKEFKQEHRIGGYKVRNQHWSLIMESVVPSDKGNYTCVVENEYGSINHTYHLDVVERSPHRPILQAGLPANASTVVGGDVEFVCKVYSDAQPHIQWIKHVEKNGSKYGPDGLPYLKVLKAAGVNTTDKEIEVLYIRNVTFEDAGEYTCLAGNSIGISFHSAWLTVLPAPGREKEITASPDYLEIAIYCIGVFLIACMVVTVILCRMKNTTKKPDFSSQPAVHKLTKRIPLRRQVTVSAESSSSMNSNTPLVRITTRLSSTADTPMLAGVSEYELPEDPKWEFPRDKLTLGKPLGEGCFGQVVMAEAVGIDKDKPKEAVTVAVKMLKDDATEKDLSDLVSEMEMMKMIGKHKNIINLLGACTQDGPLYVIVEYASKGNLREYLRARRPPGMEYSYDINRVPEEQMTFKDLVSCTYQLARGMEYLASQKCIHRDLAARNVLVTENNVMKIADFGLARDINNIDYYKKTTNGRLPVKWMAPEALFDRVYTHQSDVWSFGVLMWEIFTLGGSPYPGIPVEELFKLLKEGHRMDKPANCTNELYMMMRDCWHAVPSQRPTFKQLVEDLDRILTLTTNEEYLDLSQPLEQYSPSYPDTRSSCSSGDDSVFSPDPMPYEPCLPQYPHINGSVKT

IC50, ≤ 100 nM:
C=CC(=O)N1C[C@@H](n2nc(C#Cc3c(F)cc4c(ncn4C4CC4)c3F)c3c(N)nccc32)C[C@@H]1COC [Example 73, 1-[(2R,4S)-4-[4-Amino-3-[2-(1-cyclopropyl-4,6-difluoro-1,3-benzodiazol-5-yl)ethynyl]pyrazolo[4,3-c]pyridin-1-yl]-2-(methoxymethyl)pyrrolidin-1-yl]prop-2-en-1-one; formic acid]
C=CC(=O)N1C[C@@H](n2nc(C#Cc3cc4ncn(C)c4cc3F)c3c(N)nccc32)C[C@@H]1COC [Example 74, 1-[(2R,4S)-4-[4-Amino-3-[2-(6-fluoro-1-methyl-1,3-benzodiazol-5-yl)ethynyl]pyrazolo[4,3-c]pyridin-1-yl]-2-(methoxymethyl)pyrrolidin-1-yl]prop-2-en-1-one]
C=CC(=O)N1C[C@@H](n2cc(C#Cc3c(F)cc4c(ncn4C4CC4)c3F)c3c(N)ncnc32)C[C@@H]1COC [Example 75, 1-[(2R,4S)-4-[4-Amino-5-[2-(1-cyclopropyl-4,6-difluoro-1,3-benzodiazol-5-yl)ethynyl]pyrrolo[2,3-d]pyrimidin-7-yl]-2-(methoxymethyl)pyrrolidin-1-yl]prop-2-en-1-one]
C=CC(=O)N1C[C@@H](n2nc(C#Cc3c(F)cc4c(ncn4C4CC4)c3F)c3c(N)ncnc32)C[C@@H]1COC(F)(F)F [Example 76, 1-[(2R,4S)-4-[4-Amino-3-[2-(1-cyclopropyl-4,6-difluoro-1,3-benzodiazol-5-yl)ethynyl]pyrazolo[3,4-d]pyrimidin-1-yl]-2-[(trifluoromethoxy)methyl]pyrrolidin-1-yl]prop-2-en-1-one]
C=CC(=O)N1C[C@@H](n2nc(C#Cc3cc4ncn(CC)c4cc3F)c3c(N)ncnc32)C[C@@H]1COC [Example 77, 1-[(2R,4S)-4-[4-Amino-3-[2-(1-ethyl-6-fluoro-1,3-benzodiazol-5-yl)ethynyl]pyrazolo[3,4-d]pyrimidin-1-yl]-2-(methoxymethyl)pyrrolidin-1-yl]prop-2-en-1-one]
C=CC(=O)N1C[C@@H](n2nc(C#Cc3cc4ncn(C5CC5)c4cc3F)c3c(N)ncnc32)C[C@@H]1COC(F)(F)F [Example 78, 1-((2R,4S)-4-(4-Amino-3-((1-cyclopropyl-6-fluoro-1H-benzo[d]imidazol-5-yl)ethynyl)-1H-pyrazolo[3,4-d]pyrimidin-1-yl)-2-((trifluoromethoxy)methyl)pyrrolidin-1-yl)prop-2-en-1-one]
C=CC(=O)N1C[C@@H](n2nc(C#Cc3cc4ncn(CC)c4cc3F)c3c(N)nccc32)C[C@@H]1COC [Example 79, 1-[(2R,4S)-4-[4-Amino-3-[2-(1-ethyl-6-fluoro-1,3-benzodiazol-5-yl)ethynyl]pyrazolo[4,3-c]pyridin-1-yl]-2-(methoxymethyl)pyrrolidin-1-yl]prop-2-en-1-one]
C=CC(=O)N1C[C@@H](n2cc(C#Cc3cc4ncn(CC)c4cc3F)c3c(N)ncnc32)C[C@@H]1COC [Example 80, 1-[(2R,4S)-4-[4-Amino-5-[2-(1-ethyl-6-fluoro-1,3-benzodiazol-5-yl)ethynyl]pyrrolo[2,3-d]pyrimidin-7-yl]-2-(methoxymethyl)pyrrolidin-1-yl]prop-2-en-1-one]
C=CC(=O)N1C[C@@H](n2nc(C#Cc3cc4ncn(CC)c4cc3F)c3c(N)nccc32)C[C@@H]1COC(F)(F)F [Example 81, 1-[(2R,4S)-4-[4-Amino-3-[2-(1-ethyl-6-fluoro-1,3-benzodiazol-5-yl)ethynyl]pyrazolo[4,3-c]pyridin-1-yl]-2-[(trifluoromethoxy)methyl]pyrrolidin-1-yl]prop-2-en-1-one]
C=CC(=O)N1C[C@@H](n2nc(C#Cc3cc4ncn(C(F)F)c4cc3F)c3c(N)ncnc32)C[C@@H]1COC [Example 82, 1-[(2R,4S)-4-(4-Amino-3-[2-[1-(difluoromethyl)-6-fluoro-1,3-benzodiazol-5-yl]ethynyl]pyrazolo[3,4-d]pyrimidin-1-yl)-2-(methoxymethyl)pyrrolidin-1-yl]prop-2-en-1-one]
C=CC(=O)N1C[C@@H](n2nc(C#Cc3cc4ncn(C(F)F)c4cc3F)c3c(N)nccc32)C[C@@H]1COC [Example 83, 1-[(2R,4S)-4-(4-Amino-3-[2-[1-(difluoromethyl)-6-fluoro-1,3-benzodiazol-5-yl]ethynyl]pyrazolo[4,3-c]pyridin-1-yl)-2-(methoxymethyl)pyrrolidin-1-yl]prop-2-en-1-one]
C=CC(=O)N1C[C@@H](n2cc(C#Cc3cc4ncn(C(F)F)c4cc3F)c3c(N)ncnc32)C[C@@H]1COC [Example 84, 1-[(2R,4S)-4-(4-Amino-5-[2-[1-(difluoromethyl)-6-fluoro-1,3-benzodiazol-5-yl]ethynyl]pyrrolo[2,3-d]pyrimidin-7-yl)-2-(methoxymethyl)pyrrolidin-1-yl]prop-2-en-1-one]
C=CC(=O)N1C[C@@H](n2nc(C#Cc3c(F)cc4c(ncn4CC)c3F)c3c(N)ncnc32)C[C@@H]1COC [Example 85, 1-[(2R,4S)-4-[4-Amino-3-[2-(1-ethyl-4,6-difluoro-1,3-benzodiazol-5-yl)ethynyl]pyrazolo[3,4-d]pyrimidin-1-yl]-2-(methoxymethyl)pyrrolidin-1-yl]prop-2-en-1-one]
C=CC(=O)N1C[C@@H](n2nc(C#Cc3c(F)cc4c(ncn4CC)c3F)c3c(N)nccc32)C[C@@H]1COC [Example 86, 1-[(2R,4S)-4-[4-Amino-3-[2-(1-ethyl-4,6-difluoro-1,3-benzodiazol-5-yl)ethynyl]pyrazolo[4,3-c]pyridin-1-yl]-2-(methoxymethyl)pyrrolidin-1-yl]prop-2-en-1-one]
C=CC(=O)N1C[C@@H](n2cc(C#Cc3c(F)cc4c(ncn4CC)c3F)c3c(N)ncnc32)C[C@@H]1COC [Example 87, 1-[(2R,4S)-4-[4-Amino-5-[2-(1-ethyl-4,6-difluoro-1,3-benzodiazol-5-yl)ethynyl]pyrrolo[2,3-d]pyrimidin-7-yl]-2-(methoxymethyl)pyrrolidin-1-yl]prop-2-en-1-one]
C=CC(=O)N1C[C@@H](n2nc(C#Cc3cc4ncn(CC)c4cc3Cl)c3c(N)nccc32)C[C@@H]1COC [Example 88, 1-[(2R,4S)-4-[4-Amino-3-[2-(6-chloro-1-ethyl-1,3-benzodiazol-5-yl)ethynyl]pyrazolo[4,3-c]pyridin-1-yl]-2-(methoxymethyl)pyrrolidin-1-yl]prop-2-en-1-one]
C=CC(=O)N1C[C@@H](n2cc(C#Cc3cc4nc(C)[nH]c4cc3Cl)c3c(N)ncnc32)C[C@@H]1COC [Example 89, 1-[(2R,4S)-4-[4-Amino-5-[2-(6-chloro-2-methyl-1H-1,3-benzodiazol-5-yl)ethynyl]pyrrolo[2,3-d]pyrimidin-7-yl]-2-(methoxymethyl)pyrrolidin-1-yl]prop-2-en-1-one]
C=CC(=O)N1C[C@@H](n2nc(C#Cc3cc4ncn(C)c4cc3Cl)c3c(N)ncnc32)C[C@@H]1COC [Example 90, 1-[(2R,4S)-4-[4-Amino-3-[2-(6-chloro-1-methyl-1,3-benzodiazol-5-yl)ethynyl]pyrazolo[3,4-d]pyrimidin-1-yl]-2-(methoxymethyl)pyrrolidin-1-yl]prop-2-en-1-one]
